Results reported in patent publication EP0255299A2, “Glycopeptide antibiotics” (SMITHKLINE BECKMAN CORPORATION, priority 1986, dated 1988).
In brackets after ≈: the same amount, converted by molar mass. Where two headings read alike, the source gives them in different places. One block for each compound: values may come before it.

Assays:
[1] = system: S. faecalis (strain 9, Table 2); test: mouse protection assay, i.p. infection with S. faecalis, single s.c. dose; format: in vivo; conditions: mice infected with 3.17 LD50's, dosed once subcutaneously one hour after infection
Protocol: (§1) The in vivo activity of the CWI-785 complex and its components and hydrolysis products was confirmed by administering selected CWI-785 antibiotics to mice infected with various gram-positive pathogens. In one representative assay, in which mice infected intraperitoneally with 46.8 LD ₅₀ʹs of S. aureus (strain 1, Tables 1 and 2) were dosed once, subcutaneously one hour after infection, the following ED₅₀ʹs (mg/kg) (the ED₅₀ gives the amount of antibiotic necessary for 50% survival) were observed: CWI-785B: 2.4, CWI-785C: 3.1, CWI-785: 3.8, HPB3: 0.9, vancomycin: 0.7. In a second representative assay carried out as above except that mice were infected with 3.17 LD₅₀ʹs of S. faecalis (strain 9, Table 2), the following ED₅₀ʹs were observed: HPB3 hydrochloride: 1.6, HPB4 hydrochloride: 1.6, vancomycin: 2.2, teicoplanin: 1.3.

[2] = system: S. aureus (strain 1, Tables 1 and 2); test: mouse protection assay, i.p. infection with S. aureus, single s.c. dose; format: in vivo; conditions: mice infected intraperitoneally with 46.8 LD50's, dosed once subcutaneously one hour after infection, 50% survival
Protocol: as §1

physchem = format: physicochemical
Source text: The invention includes within its scope pharmaceutical compositions containing at least one of the above-mentioned antibiotic compounds and a pharmaceutically acceptable carrier. The compositions may also contain other active antibacterial agents. The compositions may be made up in any pharmaceutical form appropriate for the route of administration in question. Such compositions are exemplified by solid compositions for oral administration, such as tablets, capsules, pills, powders and granules; liquid compositions for oral administration such as solutions, suspensions, syrups and elixirs; preparations for parenteral administration such as sterile solutions, suspensions or emulsions; and preparations for topical administration such as gels, creams, ointments or salves. […] In 40% prophylene glycol in water (V/V), the solubility of HPB4 free base is greater than about 200 mg/ml. […] The solubility of HPB4·K is about 300 mg/ml. The solubility of HPB4·2HCl is about 600 mg/ml.
The solubility of the potassium salt is about 300 mg/ml in water.

pH of aqueous solution = format: physicochemical; conditions: 100 mg/ml aqueous solution

Structure (SMILES): CNC(C(=O)NC1C(=O)NC(CC[S+](C)[O-])C(=O)NC2C(=O)NC3C(=O)NC(C(=O)NC(C(=O)O)c4cc(O)cc(O)c4-c4cc3ccc4O)C(OC3CC(N)C(O)C(C)O3)c3ccc(c(Cl)c3)Oc3cc2cc(c3O)Oc2ccc(cc2)C1O)c1ccc(O)cc1.Cl (centres unmarked) [HPB3 hydrochloride]
ED₅₀ [1]: 1.6 mg/kg

Structure (SMILES): CNC(C(=O)NC1C(=O)NC(CC[S+](C)[O-])C(=O)NC2C(=O)NC3C(=O)NC(C(=O)NC(C(=O)O)c4cc(O)cc(O)c4-c4cc3ccc4O)C(OC3CC(N)C(O)C(C)O3)c3ccc(c(Cl)c3)Oc3cc2cc(c3O)Oc2ccc(cc2)C1O)c1ccc(O)cc1 (centres unmarked) [HPB3]
ED₅₀ [2]: 0.9 mg/kg

Structure (SMILES): CNC(C(=O)NC1C(=O)NC(CCSC)C(=O)NC2C(=O)NC3C(=O)NC(C(=O)NC(C(=O)O)c4cc(O)cc(O)c4-c4cc3ccc4O)C(OC3CC(N)C(O)C(C)O3)c3ccc(c(Cl)c3)Oc3cc2cc(c3O)Oc2ccc(cc2)C1O)c1ccc(O)cc1.Cl (centres unmarked) [HPB4 hydrochloride]
ED₅₀ [1]: 1.6 mg/kg

solubility (physchem; 40% peg-400 in water, organic solvent or mixture, solubility): ~250 mg/mL (≈ 194 mM)
solubility (physchem; 40% propylene glycol in water, organic solvent or mixture, solubility): > 200 mg/mL
Structure (SMILES): CNC(C(=O)NC1C(=O)NC(CCSC)C(=O)NC2C(=O)NC3C(=O)NC(C(=O)NC(C(=O)O)c4cc(O)cc(O)c4-c4cc3ccc4O)C(O[C@H]3C[C@@H](N)[C@@H](O)[C@H](C)O3)c3ccc(c(Cl)c3)Oc3cc2cc(c3O)Oc2ccc(cc2)C1O)c1ccc(O)cc1 (some centres unmarked) [HPB4]

solubility (physchem): about 600 mg/ml
Structure (SMILES): CNC(C(=O)NC1C(=O)NC(CCSC)C(=O)NC2C(=O)NC3C(=O)NC(C(=O)NC(C(=O)O)c4cc(O)cc(O)c4-c4cc3ccc4O)C(O[C@H]3C[C@@H](N)[C@@H](O)[C@H](C)O3)c3ccc(c(Cl)c3)Oc3cc2cc(c3O)Oc2ccc(cc2)C1O)c1ccc(O)cc1 (some centres unmarked) [HPB4·2HCl]

solubility (physchem; solubility): ~300 mg/mL (≈ 232 mM)
solubility (physchem; water, solubility): ~300 mg/mL (≈ 232 mM)
pH (pH of aqueous solution): 9.29
Structure (SMILES): CNC(C(=O)NC1C(=O)NC(CCSC)C(=O)NC2C(=O)NC3C(=O)NC(C(=O)NC(C(=O)O)c4cc(O)cc(O)c4-c4cc3ccc4O)C(O[C@H]3C[C@@H](N)[C@@H](O)[C@H](C)O3)c3ccc(c(Cl)c3)Oc3cc2cc(c3O)Oc2ccc(cc2)C1O)c1ccc(O)cc1 (some centres unmarked) [HPB4·K]

Structure (SMILES): CN[C@H](CC(C)C)C(=O)N[C@H]1C(=O)N[C@@H](CC(N)=O)C(=O)N[C@H]2C(=O)N[C@H]3C(=O)N[C@H](C(=O)N[C@H](C(=O)O)c4cc(O)cc(O)c4-c4cc3ccc4O)[C@H](O)c3ccc(c(Cl)c3)Oc3cc2cc(c3O[C@@H]2O[C@H](CO)[C@@H](O)[C@H](O)[C@H]2O[C@H]2C[C@](C)(N)[C@H](O)[C@H](C)O2)Oc2ccc(cc2Cl)[C@H]1O [vancomycin, reference compound]
ED50 ([1]; Enterococcus faecalis, sc, 1 h, read-out: ED₅₀): 2.2 mg/kg
ED50 ([2]; Staphylococcus aureus, sc, 1 h, read-out: ED₅₀): 0.7 mg/kg
